Experimental data reported in PubChem BioAssay AID1259407 (Chemical Carcinogenesis Research Information System (CCRIS), 2018).
Activity calls are given as the source filed them. No rule for the calls is given here.

Tested on: CCRIS mutagenicity, Ames/micronucleus/aberration tests
Test: CCRIS mutagenicity studies

Measured: mutagenic call

COC(=O)[C@H]1[C@H]2C[C@@H]3c4[nH]c5cc(OC)ccc5c4CCN3C[C@H]2C[C@@H](OC(=O)c2cc(OC)c(OC)c(OC)c2)[C@@H]1OC
inactive: End Point: IN VITRO CHROMOSOMAL ABERRATIONS, Test System: CHO CELLS, Metabolic Activation: NONE inactive; negative | Test System: AMES SALMONELLA TYPHIMURIUM, Strain/Indicator: TA97, Metabolic Activation: HAMSTER, LIVER, S-9, AROCLOR 1254 (10 OR 30%), Method: PREINCUBATION inactive; negative | Test System: AMES SALMONELLA TYPHIMURIUM, Strain/Indicator: TA97, Metabolic Activation: NONE, Method: PREINCUBATION inactive; negative | Test System: AMES SALMONELLA TYPHIMURIUM, Strain/Indicator: TA97, Metabolic Activation: RAT, LIVER, S-9, AROCLOR 1254 (10 OR 30%), Method: PREINCUBATION inactive; negative | Test System: AMES SALMONELLA TYPHIMURIUM, Strain/Indicator: TA98, Metabolic Activation: HAMSTER, LIVER, S-9, AROCLOR 1254 (10 OR 30%), Method: PREINCUBATION inactive; negative | Test System: AMES SALMONELLA TYPHIMURIUM, Strain/Indicator: TA98, Metabolic Activation: NONE, Method: PREINCUBATION inactive; negative | Test System: AMES SALMONELLA TYPHIMURIUM, Strain/Indicator: TA98, Metabolic Activation: NONE, Method: STANDARD PLATE inactive; negative | Test System: AMES SALMONELLA TYPHIMURIUM, Strain/Indicator: TA98, Metabolic Activation: RAT, LIVER, S-9, AROCLOR 1254 (10 OR 30%), Method: PREINCUBATION inactive; negative | Test System: AMES SALMONELLA TYPHIMURIUM, Strain/Indicator: TA98, Metabolic Activation: RAT, LIVER, S-9, AROCLOR 1254, Method: STANDARD PLATE inactive; negative | Test System: AMES SALMONELLA TYPHIMURIUM, Strain/Indicator: TA100, Metabolic Activation: HAMSTER, LIVER, S-9, AROCLOR 1254 (10 OR 30%), Method: PREINCUBATION inactive; negative | Test System: AMES SALMONELLA TYPHIMURIUM, Strain/Indicator: TA100, Metabolic Activation: NONE, Method: PREINCUBATION inactive; negative | Test System: AMES SALMONELLA TYPHIMURIUM, Strain/Indicator: TA100, Metabolic Activation: NONE, Method: STANDARD PLATE inactive; negative | Test System: AMES SALMONELLA TYPHIMURIUM, Strain/Indicator: TA100, Metabolic Activation: RAT, LIVER, S-9, AROCLOR 1254 (10%), Method: PREINCUBATION inactive; negative | Test System: AMES SALMONELLA TYPHIMURIUM, Strain/Indicator: TA100, Metabolic Activation: RAT, LIVER, S-9, AROCLOR 1254 (30%), Method: PREINCUBATION inactive; negative | Test System: AMES SALMONELLA TYPHIMURIUM, Strain/Indicator: TA100, Metabolic Activation: RAT, LIVER, S-9, AROCLOR 1254, Method: STANDARD PLATE inactive; negative | Test System: AMES SALMONELLA TYPHIMURIUM, Strain/Indicator: TA1535, Metabolic Activation: HAMSTER, LIVER, S-9, AROCLOR 1254 (10 OR 30%), Method: PREINCUBATION inactive; negative | Test System: AMES SALMONELLA TYPHIMURIUM, Strain/Indicator: TA1535, Metabolic Activation: NONE, Method: PREINCUBATION inactive; negative | Test System: AMES SALMONELLA TYPHIMURIUM, Strain/Indicator: TA1535, Metabolic Activation: NONE, Method: STANDARD PLATE inactive; negative | Test System: AMES SALMONELLA TYPHIMURIUM, Strain/Indicator: TA1535, Metabolic Activation: RAT, LIVER, S-9, AROCLOR 1254 (10 OR 30%), Method: PREINCUBATION inactive; negative | Test System: AMES SALMONELLA TYPHIMURIUM, Strain/Indicator: TA1535, Metabolic Activation: RAT, LIVER, S-9, AROCLOR 1254, Method: STANDARD PLATE inactive; negative | Test System: AMES SALMONELLA TYPHIMURIUM, Strain/Indicator: TA1537, Metabolic Activation: NONE, Method: STANDARD PLATE inactive; negative | Test System: AMES SALMONELLA TYPHIMURIUM, Strain/Indicator: TA1537, Metabolic Activation: RAT, LIVER, S-9, AROCLOR 1254, Method: STANDARD PLATE inactive; negative | Test System: E. COLI, Strain/Indicator: WP2 UVRA, Metabolic Activation: HAMSTER, LIVER, S-9, AROCLOR 1254, Method: STANDARD PLATE inactive; negative | Test System: E. COLI, Strain/Indicator: WP2 UVRA, Metabolic Activation: HAMSTER, LIVER, S-9, Method: STANDARD PLATE inactive; negative | Test System: E. COLI, Strain/Indicator: WP2 UVRA, Metabolic Activation: MOUSE, LIVER, S-9, AROCLOR 1254, Method: STANDARD PLATE inactive; negative | Test System: E. COLI, Strain/Indicator: WP2 UVRA, Metabolic Activation: MOUSE, LIVER, S-9, Method: STANDARD PLATE inactive; negative | Test System: E. COLI, Strain/Indicator: WP2 UVRA, Metabolic Activation: NONE, Method: STANDARD PLATE inactive; negative | Test System: E. COLI, Strain/Indicator: WP2 UVRA, Metabolic Activation: RAT, LIVER, S-9, AROCLOR 1254, Method: STANDARD PLATE inactive; negative | Test System: E. COLI, Strain/Indicator: WP2 UVRA, Metabolic Activation: RAT, LIVER, S-9, Method: STANDARD PLATE inactive; negative | Test System: UDS RAT HEPATOCYTES, Strain/Indicator: BROMODEOXYURIDINE INCORP, Metabolic Activation: NONE, Method: FLOW CYTOMETRIC ANALYSIS inactive; negative
